Source: US9260382B2, “Methods of reducing virulence in bacteria” (priority 2010, dated 2016)

Assays:
hrpA promoter (T3SS) [1] = assay: hrpA promoter-probe phrpA in Erwinia amylovora 273, flow cytometry; format: cell-based; settings: Ea273 (phrpA), HIM + 100 μM compound
Procedure: Wild-type Erwinia amylovora 273 was used in this study. The promoter-probe plasmid phrpA was constructed as follows. The hrpA promoter region of Erwinia amylovora 273 was amplified and cloned into pPROBE-NT to produce PhrpA. Plasmid PhrpA was electroporated into Erwinia amylovora 273. Expression of hrpA was analyzed using a FACS Calibur flow cytometer (BD Biosciences, CA). Wild-type Erwinia amylovora 273 containing phrpA was cultured in a hrp-inducing medium (HIM) containing dimethyl sulfoxide (DMSO; solvent of chemical compounds), or HIM supplemented with 100 μM of each compound, and promoter activity was assessed at 6 h and 9 h by measuring GFP intensity using flow cytometry (Table 19).

hrpA promoter (T3SS) [2] = assay: GFP reporter plasmid phrpA, flow cytometry (FACS) of hrpA promoter activity; format: cell-based, Dickeya dadantii 3937; settings: for mean fluorescence intensity of GFP, hrpA expression: D. dadantii 3937 (phrpA), MM + 100 μM compound; for inhibitory activity on T3SS gene (hrpA) expression, in words: D. dadantii 3937, reporter plasmid phrpA, 100 μM
Procedure: FACS analysis of promoter activity of dspE, hrpA, hrpL, hrpN, and hrpS was carried out as described (Peng et al., 2006). Briefly, the wild-type Ech3937 and the mutant strains carrying the promoter reporter plasmid were grown on LB broth at 28° C. overnight and transferred to appropriate media. For FACS analysis, samples were collected by centrifugation, washed with 1× phosphate buffer saline (PBS) at 13,000 rpm for 1 min, and re-suspended in 1×PBS to ca 10^6 CFU/ml prior to being run in a FACS Calibur flow cytometer (BD Biosciences, CA). Three replicates were performed for each treatment.
To identify potential compounds that repress activation of T3SS, analogs and isomers of TCA and intermediates of salicylic acid and phenypropanoid biosynthesis pathways in plants were further screened for their effect on Ech3937 hrpA expression by flow cytometry (Table 9). A green fluorescent protein (GFP) reporter plasmid phrpA (pProbe-AT derivative with PCR fragment containing hrpA promoter region) was constructed, resulting in a transcriptional fusion of hrpA promoter with GFP gene. Bacterial cells containing phrpA plasmid were grown in MM supplemented with 0.1 mM of each compound. GFP intensity, which is a measurement of hrpA promoter activity, was measured by flow cytometry.
hrpA encodes the T3SS pilus required for protein translocation into plant cells. To test for an inhibitory effect on T3SS hrpA expression, the reporter plasmid phrpA was used to measure the effects of these compounds on hrpA expression. The reporter plasmid phrpA encodes a transcriptional fusion of the hrpA promoter controlling expression of green fluorescent protein (gfp). 50 μL of bacterial suspension of D. dadantii 3937 carrying the hrpA reporter (optical density at 600 nm OD600=1.0) was used as the initial inoculum and added to 5 mL of MM or MM supplemented with 100 μM of one of the compounds. The expression level of hrpA of these bacterial cells was measured by measuring GFP intensity of gated populations of the bacterial cells by flow cytometry and analyzed with Cell Quest software (BD Biosciences, San Jose, Calif.). The fluorescence intensities were an average GFP fluorescence intensity of total bacterial cells. Compounds were assayed two different times (12 and 24 h of bacterial growth) with T3SS minimal media (MM) as the control treatment for each set of experiment. Values presented in Table 14 are mean fluorescence intensity of GFP, representative of two experiments, presented as the average of three replicates with standard deviation (SD).

Structure (SMILES)	Avg MFI ± SD, hrpA expression (hrpA promoter (T3SS) [1]; 6 h)	Avg MFI ± SD, hrpA expression (hrpA promoter (T3SS) [1]; 9 h)	mean fluorescence intensity of GFP, hrpA expression (hrpA promoter (T3SS) [2]; 12 h)	mean fluorescence intensity of GFP, hrpA expression (hrpA promoter (T3SS) [2]; 24 h)	inhibitory activity on T3SS gene (hrpA) expression, in words (hrpA promoter (T3SS) [2])
O=C(O)[C@@H]1C[C@H]1c1ccc(O)cc1 (relative stereo) [Compound 107, trans-2-(4-Hydroxyphenyl)-1-cyclopropanecarboxylic acid]	1464.3 ± 76.5	1348.0 ± 82.6	45.9 ± 2.7	122.1 ± 17.9	no inhibitory activity
CCOS(=O)(=O)/C=C/c1ccc(O)cc1 [Compound 122, Ethyl trans-2-(4-hydroxyphenyl)-ethenylsulfonate]	2042.8 ± 20.7	2900.6 ± 120.1	38.6 ± 1.8	60.9 ± 0.8	did not exhibit any activity
O=C(O)/C=C/c1ccc(F)cc1 [Compound 110, trans-4-Fluorocinnamic acid]	279.2 ± 5.3	152.4 ± 0.7	63.4 ± 8.0	183.8 ± 19.2	inactive
CCOC(=O)[C@@H]1C[C@H]1c1ccc(OC)cc1 (relative stereo) [Compound 100, Ethyl trans-2-(4-methoxyphenyl)-1-cyclopropanecarboxylate]	447.8 ± 20.2	594.6 ± 3.5	45.3 ± 3.4	119.1 ± 22.1	–
O=C(O)/C=C/c1ccc(-c2ccccc2)cc1 [Compound 108, trans-4-Phenylcinnamic acid]	–	–	31.6 ± 2.5	109.0 ± 19.8	inactive
CCOS(=O)(=O)/C=C/c1ccc(OC)cc1 [Compound 120, Ethyl trans-2-(4-methoxyphenyl)-ethenylsulfonate]	371.5 ± 29.7	492.0 ± 37.6	49.9 ± 2.6	68.6 ± 6.0	did not exhibit any activity
COc1ccc(/C=C/CN2C(=O)c3ccccc3C2=O)cc1 [Compound 118, N-(4-Methoxycinnamyl)phthalimide]	361.3 ± 28.6	520.4 ± 16.2	59.0 ± 0.4	83.8 ± 1.7	–
O=Cc1ccc(/C=C/C(=O)O)cc1 [Compound 029, trans-4-Formlycinnamic acid]	285.1 ± 40.8	218.3 ± 9.9	–	–	–
Cc1cccc(/C=C/C(=O)O)c1 [Compound 019, trans-3-Methylcinnamic acid]	311.5 ± 18.6	251.6 ± 13.3	–	–	–
O=C(/C=C/c1cccc(Br)c1)NO [Compound 151, trans-3-Bromocinnamohydroxamic acid]	6.3 ± 1.2	3.9 ± 1.2	–	–	–
O=C(/C=C/c1cccc(O)c1)NO [Compound 130, trans-3-Hydroxycinnamohydroxamic acid]	431.4 ± 4.1	491.0 ± 10.2	–	–	–
O=C(/C=C/c1ccccc1F)NO [Compound 154, trans-2-Fluorocinnamohydroxamic acid]	111.4 ± 15.1	77.8 ± 1.3	–	–	–
O=C(/C=C/c1ccccc1Br)NO [Compound 152, trans-2-Bromocinnamohydroxamic acid]	15.7 ± 2.3	11.1 ± 1.2	–	–	–
O=C(COc1ccccc1)NO [Compound 143, 2-Phenoxyacetohydroxamic acid]	228.7 ± 4.6	178.5 ± 27.1	–	–	–
O=C(NO)[C@@H]1C[C@H]1c1ccccc1 (relative stereo) [Compound 162, trans-2-Phenylcyclopropane-1-carbohydroxamic acid]	711.1 ± 2.8	701.9 ± 2.8	–	–	–
O=C(/C=C/c1ccccc1[N+](=O)[O-])NO [Compound 157, trans-2-Nitrocinnamohydroxamic acid]	104.6 ± 7.3	96.2 ± 3.3	–	–	–
O=C(O)/C=C/c1cccc(Cl)c1 [Compound 022, trans-3-Chlorocinnamic acid]	332.9 ± 16.9	238.3 ± 8.7	–	–	–
Cc1ccc(/C=C/C(=O)NO)cc1 [Compound 142, trans-4-Methylcinnamohydroxamic acid]	126.2 ± 5.6	106.0 ± 13.6	–	–	–
O=C(O)/C=C/c1ccc(O)c(O)c1 [Compound 003, 3,4-Dihydroxycinnamic acid]	783.4 ± 80.2	787.3 ± 25.2	–	–	–
O=C(O)/C=C/c1ccc(O)cc1O [Compound 002, 2,4-Dihydroxycinnamic acid]	1365.3 ± 104.9	1479.8 ± 72.9	–	–	–
O=C(/C=C/c1ccc([N+](=O)[O-])cc1)NO [Compound 155, trans-4-Nitrocinnamohydroxamic acid]	108.4 ± 8.5	132.5 ± 2.6	–	–	–
O=C(/C=C/c1ccc(-c2ccccc2)cc1)NO [Compound 140, trans-4-Phenylcinnamohydroxamic acid]	101.7 ± 17.1	82.8 ± 4.3	–	–	–
O=C(/C=C/c1cccc(F)c1)NO [Compound 153, trans-3-Fluorocinnamohydroxamic acid]	177.1 ± 11.9	110.6 ± 3.2	–	–	–
NNC(=O)/C=C/c1ccc(O)cc1 [Compound 133, trans-3-(4-Hydroxyphenyl)acrylohydrazid]	1716.5 ± 33.1	2780.9 ± 58.5	–	–	–
O=C(Cc1ccccc1)c1ccc(C2CC2C(=O)O)cc1 (stereo not drawn) [Compound 165, trans-2-[(4′-Benzylcarbonyl]phenylcyclopropane-1-carboxylic acid]	292.8 ± 17.1	229.4 ± 15.0	–	–	–
COc1cccc(/C=C/C(=O)NO)c1 [Compound 158, trans-3-Methoxycinnamohydroxamic acid]	216.2 ± 12.5	250.6 ± 13.9	–	–	–
O=C(/C=C/c1cccs1)NO [Compound 161, trans-3-(2-Thienyl)acrylhydroxamic acid]	132.4 ± 13.2	145.0 ± 11.7	–	–	–
